Where a name gives a salt, the structure may show the parent alone. Read-outs that look alike come from different tables or passages of the source.
Experiments:
[1] = molecular target: neuronal nicotinic acetylcholine receptors; assay: [3H]-cytisine ligand-receptor binding assay (crude synaptic membranes from whole rat brain); settings: for binding to the nicotinic acetylcholine receptor (in words): preferred compounds
Procedure: For the purpose of identifying compounds as nicotinic acetylcholinergic agents which are capable of interacting with neuronal nicotinic acetylcholine receptors in the brain, a ligand-receptor binding assay was carried out as the initial screen. Compounds of the present invention were effective at interacting with neuronal nicotinic acetylcholine receptors as assayed for their ability to displace radioligand from neuronal nicotinic acetylcholine receptors labeled with [^3 H]-cytisine ([^3 H]-CYT).
A. Protocol For Determination of Nicotinic Acetylcholine Receptor Binding Potencies of Ligands
Binding of [^3 H]-CYT to nicotinic acetylcholine receptors was accomplished using crude synaptic membrane preparations from whole rat brain (Pabreza et al., Molecular Pharmacol., 1990, 39:9). Washed membranes were stored at -80° C. prior to use. Frozen aliquots were slowly thawed and resuspended in 20 volumes of buffer (containing: 120 mM NaCl, 5 mM KCl, 2 mM MgCl2, 2 mM CaCl2 and 50 mM Tris-Cl, pH 7.4 @4° C.). After centrifuging at 20,000×g for 15 minutes, the pellets were resuspended in 30 volumes of buffer. Homogenate (containing 125-150 μg protein) was added to triplicate tubes containing concentrations of test compound and [^3 H]-CYT (1.25 nM) in a final volume of 500 μL. Samples were incubated for 60 minutes at 4° C., then rapidly filtered through Whatman GF/B filters presoaked in 0.5% polyethylimine using 3×4 mL of ice-cold buffer. The filters were counted in 4 mL of Ecolume® (ICN). Nonspecific binding was determined in the presence of 10 μM (-)-nicotine and values were expressed as a percentage of total binding.

[2] = test system: neuronal nicotinic acetylcholine receptors in IMR-32 cells; assay: 86Rb+ efflux assay in IMR-32 neuroblastoma cells; type: cell-based, human; settings: Table 1; for IMR-32 % max: maximal response, percent relative to 100 μM (S)-nicotine; for IMR-32 % Inhibition @ (30 μM) / IMR-32 % Inhibition @ 10 μM: inhibition of efflux elicited by 100 μM (S)-nicotine
Procedure: B. Protocols for the Determination of Functional Effects of Nicotinic Acetylcholine Receptor Ligands on Synaptic Transmission
Experimental cells were seeded at a density of 500,000 cells/mL into a 24-well tissue culture dish. Plated cells were allowed to proliferate for at least 48 hours before loading with 2 μCi/mL of ^86 Rb^+ (35 Ci/mmol) overnigh at 37° C.

[3] = Table 2, [3H]-cytisine binding, read-out: Binding
[4] = Table 1, [3H]-cytisine 1.25 nM, 4° C., 60 min, Ki by Cheng and Prusoff, read-out: [^3 H]-Cyt Binding

| Molecule | Ki [1, 4] [nM] | also measured |
| --- | --- | --- |
| 5-chloro-2-(1-methyl-2-(S)-pyrrolidinyl)-6-(3-pyridyl)furo[3,2-b]pyridine hydrochloride [Example 59] | – | Ki [1, 3]: 672 nM |
| Clc1ccc2oc([C@H]3C[C@@H]4CC[C@H]3N4)cc2n1 (relative stereo) [Example 135, (±)-2-(7-aza-2-exo-bicyclo[2.2.1]heptyl)-5-chlorofuro[3,2-b]pyridine hydrochloride] | – | Ki [1, 3]: 3.2 nM |
| Fc1ccc2oc([C@H]3C[C@@H]4CC[C@H]3N4)cc2n1 (relative stereo) [Example 136, (±)-2-(7-aza-2-exo-bicyclo[2.2.1]heptyl)-5-fluorofuro[3,2-b]pyridine hydrochloride] | – | Ki [1, 3]: 2.4 nM |
| Cc1ccc2oc([C@@H]3CCCN3)cc2n1 [Example 5, 5-methyl-2-(2-(S)-pyrrolidinyl)furo[3,2-b]pyridine dihydrochloride] | 355 | – |
| Clc1cnc2cc([C@@H]3CCCN3)oc2c1 [Example 7, 6-chloro-2-(2-(S)-pyrrolidinyl)-furo[3,2-b]pyridine dihydrochloride] | 878 | – |
| Cl.Cl.c1cc2cc([C@@H]3CCCN3)oc2cn1 [Example 9, 2-(2-(S)-pyrrolidinyl)furo[2,3-c]pyridine dihydrochloride] | 250 | IMR-32 % max [2]: 83% |
| CN1CCC[C@H]1c1cc2ccncc2o1 [Example 10, 2-(1-methyl-2-(S)-pyrrolidinyl)furo[2,3-c]pyridine dihydrochloride] | 207 | – |
| Clc1ccc2oc([C@@H]3CCCN3)cc2n1 [Example 11, 5-chloro-2-(2-(S)-pyrrolidinyl)-furo[3,2-b]pyridine hydrochloride] | 58 | – |
| Clc1cnc2oc([C@@H]3CCCN3)cc2c1 [Example 13, 5-chloro-2-(2-(S)-pyrrolidinyl)-furo[2,3-b]pyridine hydrochloride] | 4440 | – |
| CN1CCC[C@H]1c1cc2cc(Cl)cnc2o1 [Example 14, 5-chloro-2-(1-methyl-2-(S)-pyrrolidinyl)-furo[2,3-b]pyridinedihydrochloride] | 181 | – |
| c1cc2cc(C34CCCN3CCC4)oc2cn1 [Example 17, 2-(Hexahydro-1H-7a-pyrrolizinyl)furo[2,3-c]pyridine dihydrochloride] | 88 | – |
| c1cnc2cc([C@H]3CC[C@H]4CCCN43)oc2c1 [Example 18, endo-2-(Hexahydro-1H-3-(R)-pyrrolizinyl)furo[3,2-b]pyridine dihydrochloride] | 38 | IMR-32 % Inhibition @ (30 μM) [2]: 55% |
| c1cnc2cc([C@@H]3CC[C@H]4CCCN43)oc2c1 [Example 19, exo-2-(Hexahydro-1H-3-(S)-pyrrolizinyl)furo[3,2-b]pyridine dihydrochloride] | 3950 | – |
| c1cnc2cc([C@H]3CC[C@@H]4CCCN43)oc2c1 [Example 20, exo-2-(Hexahydro-1H-3-(R)-pyrrolizinyl)furo[3,2-b]pyridine dihydrochloride] | 397 | – |
| c1cnc2cc([C@@H]3CC[C@@H]4CCCN43)oc2c1 [Example 21, endo-2-(Hexahydro-1H-3-(S)-pyrrolizinyl)furo[3,2-b]pyridine dihydrochloride] | 3300 | IMR-32 % Inhibition @ (30 μM) [2]: 50%; IMR-32 % max [2]: 0% |
| c1cnc2cc(CN3CCCC3)oc2c1 [Example 22, 1-Pyrrolidinylmethyl-(2-furo[3,2-b]pyridine)] | 113 | – |
| Clc1ccc2oc(C34CCCN3CCC4)cc2n1 [Example 23, 5-Chloro-2-(hexahydro-1H-7a-pyrrolizinyl)furo[3,2-b]pyridinehydrochloride] | 0.62 | binding to the nicotinic acetylcholine receptor (in words) [1]: most potent binders |
| Clc1cc2oc([C@@H]3CCCN3)cc2nc1Cl [Example 25, 5,6-Dichloro-2-(2-(S)-pyrrolidinyl)furo [3,2-b]pyridine hydrochloride] | 103 | – |
| Cc1ccc2sc(C34CCCN3CCC4)cc2n1 [Example 27, dihydrochloride] | 27 | – |
| Cc1ccc2oc([C@H]3CCCN3C)cc2n1 [Example 30, 5-methyl-2-(1-methyl-2-(R)-pyrrolidinyl)-furo[3,2-b]pyridinedihydrochloride] | 101 | – |

| Molecule | Ki [1, 4] [nM] | also measured |
| --- | --- | --- |
| CN1CCC[C@@H]1c1cc2nc(Cl)ccc2o1 [Example 32, 5-chloro-2-(1-methyl-2-(R)-pyrrolidinyl)-furo[3,2-b]pyridinehydrochloride] | 54 | – |
| Cl.Cl.c1cc2cc([C@H]3CCCN3)oc2cn1 [Example 34, 2-(2-(R)-pyrrolidinyl)furo[2,3-c]pyridine dihydrochloride] | 1710 | IMR-32 % Inhibition @ 10 μM [2]: 2.8% |
| c1cnc2oc([C@@H]3CCCN3)cc2c1 [Example 36, 2-(2-(S)-pyrrolidinyl)furo[2,3-b]pyridine hydrochloride] | 611 | – |
| CN1CCC[C@H]1c1cc2cnccc2o1 [Example 37, 2-(1-methyl-2-(S)-pyrrolidinyl)furo[3,2-c]pyridine dihydrochloride] | 1760 | – |
| CN1CCC[C@@H]1c1cc2nc(Cl)c(Cl)cc2o1 [Example 40, 5,6-Dichloro-2-(1-methyl-2-(R)-pyrrolidinyl)furo[3,2-b]pyridine hydrochloride] | 32 | – |
| c1cnc2cc([C@H]3N[C@@H]4CC[C@H]3C4)oc2c1 [Example 41, 2-((1R,4S)-2-aza-3-(S)-bicyclo[2.2.1]heptyl)-furo[3,2-b]pyridine dihydrochloride] | 81 | – |
| Clc1ccc2oc([C@H]3N[C@@H]4CC[C@H]3C4)cc2n1 [Example 43, 2-((1R,4S)-2-aza-3-(S)-bicyclo[2.2.1]heptyl)-5-chloro-furo[3,2-b]pyridine dihydrochloride] | 453 | – |
| CN1[C@@H]2CC[C@@H](C2)[C@H]1c1cc2nc(Cl)ccc2o1 [Example 44, 2-((1R,4t)-2-aza-3-(S)-bicyclo[2.2.1]heptyl)-5-chloro-2-methylfuro[3,2-b]pyridine dihydrochloride] | 5 | – |
| Clc1cc2oc([C@H]3N[C@@H]4CC[C@H]3C4)cc2nc1Cl [Example 45, 2-((1R,4S)-2-aza-3-(S)-bicyclo[2.2.1]heptyl)-5,6-dichlorofuro[3,2-b]pyridine dihydrochloride] | 205 | – |
| Brc1cnc2cc([C@@H]3CCCN3)oc2c1 [Example 46, 6-bromo-2-(2-(S)-pyrrolidinyl)furo[3,2-b]pyridine dihydrochloride] | 468 | – |
| CN1CCC[C@H]1c1cc2ncc(Br)cc2o1 [Example 47, 6-bromo-2-(1-methyl-2-(S)-pyrrolidinyl)furo[3,2-b]pyridine dihydrochloride] | 38 | – |
| Cl.Clc1nc2cc([C@H]3CCCN3)oc2cc1Br [Example 49, 6-bromo-5-chloro-2-(2-(R)-pyrrolidinyl)furo[3,2-b]pyridine hydrochloride] | 2.6 | IMR-32 % Inhibition @ 10 μM [2]: 10%; IMR-32 % max [2]: 1% |
| CN1CCC[C@@H]1c1cc2nc(Cl)c(Br)cc2o1 [Example 50, 6-bromo-5-chloro-2-(-1-methyl-2(R)-pyrrolidinyl)furo[3,2-b]pyridine hydrochloride] | 46 | – |
| CN1CCC[C@H]1c1cc2nccc(Cl)c2o1 [Example 51, 7-chloro-2-(1-methyl-2-(S)-pyrrolidinyl)furo[3,2-b]pyridine hydrochloride] | 443 | – |
| c1ccc(-c2cnc3cc([C@@H]4CCCN4)oc3c2)cc1 [Example 53, 2-((S)-pyrrolidinyl)-6-phenylfuro[3,2-b]pyridine dihydrochloride] | – | Ki [1, 3]: 335 nM |
| CN1CCC[C@H]1c1cc2ncc(-c3ccccc3)cc2o1 [Example 54, 2-(1-methyl-2-(S)-pyrrrolidinyl)-6-phenylfuro[3,2-b]pyridinedihydrochloride] | – | Ki [1, 3]: 104 nM |
| CN1CCC[C@@H]1c1cc2nc(Cl)c(-c3ccccc3)cc2o1 [Example 56, 5-chloro-2-(1-methyl-2-(R)-pyrrolidinyl)-6-phenyl furo[3,2-b]pyridine hydrochloride] | – | Ki [1, 3]: 12.9 nM |
| Clc1nc2cc([C@H]3CCCN3)oc2cc1C=Cc1ccncc1 [Example 58, 5-chloro-2-(2-(R)-pyrrolidinyl)-6-(2-(4-pyridylethenyl)furo[3,2-b]pyridine hydrochloride] | – | Ki [1, 3]: 0.31 nM; binding to the nicotinic acetylcholine receptor (in words) [1]: most potent binders |
| CN1CCC[C@H]1c1cc2cccnc2o1 [Example 134, 2-(1-methyl-2-(S)-pyrrolidinyl)furo[2,3-b]pyidine hydrochloride] | – | Ki [1, 3]: 6.9 nM |
